# Test results from patent EP3150203B1, “COMPOUNDS WITH (1E,6E)-1,7-BIS-(3,4- DIMETHOXYPHENYL)-4,4-DISSTITUTED-HEPA-1,6-DIENE-3,5-DI-ONE STRUCTURAL SCAFFOLD,THEIR BIOLOGICAL ACTIVITY, AND USES THEREOF” (Allianz Pharmascience Ltd, priority 2012, dated 2013).
# Residue numbers refer to the chain shown, from its start.
# Columns and labels:
# [1] = tested on: CWR22Rv1 cells (human prostate cancer); assay: MTT cell growth assay, CWR22Rv1 cells; type: cell-based; settings: Homo sapiens, 120 h, 5 days, read-out: Inhibition of Tumor cells growth IC50
# Experimental: The MTT cell proliferation assay was applied in the present invention to detect the capability of compounds to suppress or inhibit prostate cancer cells growth. […] Briefly, 1 x 10^3 LNCaP or CWR22Rv1 cells suspended in complete medium were plated into each well of a 96-well Microtest III tissue culture plate (Falcon, NJ). Two days later, the medium was replaced with RPMI-1640 medium containing 10% charcoal/dextran-deprived FBS (hormone-deprived fetal bovine serum). Testing compounds were added to the medium at indicated concentrations with or without 1 nM DHT and cells were cultured for 5 days in an incubator (at 37 °C). MTT substrate solution (5 mg/ml in PBS) in 1/10 of volume was added to the cells in each well at 2 hours before harvesting. After 2 hour incubation, the plates were centrifuged (10 min at 1,000 rpm) and the supernatant from each well was carefully removed. A 100 µl of lysis buffer (50% dimethyl formamide, 5% sodium dodecyl sulphate, 0.35 M acetic acid, and 50 mM HCl) was added to each well to lyse the cells and dissolved tetrazolium in each well. The relative quantity of enzyme activity from each well was measured based on absorbance read at a wavelength of 450 nm using a Bio-RAD BenchMark microplate reader. Data derived from the MTT assay were also verified by the actual cell count and cell morphology on a separate plate set up in parallel.
# For inhibition of tumor cell growth, in vitro, cells were growth in the presence of testing compounds for 5 days, and the cell growth was assayed by standard MTT assay. […] Table 2: Biological activity of Compounds and Derivatives having (1E, 6E)-1,7-bis-(3,4-dimethoxyphenyl)-4,4-disubstituted-hepta-1,6-diene-3,5-dione OR (1E, 10E)-1,11-bis(substituted phenyl)- 6,6-disubstituted undeca-1,3,8,10-tetraene-5,7-dione structural scaffold
# AR protein = biological target: T1, AR protein (Homo sapiens, UniProt P10275, T878A); assay: Cycloheximide chasing assay of AR degradation in LNCaP cells; type: cell-based; settings: in the presence of cycloheximide (CHX) (FIG. 7)
# T1 sequence (P10275 1-920 T878A): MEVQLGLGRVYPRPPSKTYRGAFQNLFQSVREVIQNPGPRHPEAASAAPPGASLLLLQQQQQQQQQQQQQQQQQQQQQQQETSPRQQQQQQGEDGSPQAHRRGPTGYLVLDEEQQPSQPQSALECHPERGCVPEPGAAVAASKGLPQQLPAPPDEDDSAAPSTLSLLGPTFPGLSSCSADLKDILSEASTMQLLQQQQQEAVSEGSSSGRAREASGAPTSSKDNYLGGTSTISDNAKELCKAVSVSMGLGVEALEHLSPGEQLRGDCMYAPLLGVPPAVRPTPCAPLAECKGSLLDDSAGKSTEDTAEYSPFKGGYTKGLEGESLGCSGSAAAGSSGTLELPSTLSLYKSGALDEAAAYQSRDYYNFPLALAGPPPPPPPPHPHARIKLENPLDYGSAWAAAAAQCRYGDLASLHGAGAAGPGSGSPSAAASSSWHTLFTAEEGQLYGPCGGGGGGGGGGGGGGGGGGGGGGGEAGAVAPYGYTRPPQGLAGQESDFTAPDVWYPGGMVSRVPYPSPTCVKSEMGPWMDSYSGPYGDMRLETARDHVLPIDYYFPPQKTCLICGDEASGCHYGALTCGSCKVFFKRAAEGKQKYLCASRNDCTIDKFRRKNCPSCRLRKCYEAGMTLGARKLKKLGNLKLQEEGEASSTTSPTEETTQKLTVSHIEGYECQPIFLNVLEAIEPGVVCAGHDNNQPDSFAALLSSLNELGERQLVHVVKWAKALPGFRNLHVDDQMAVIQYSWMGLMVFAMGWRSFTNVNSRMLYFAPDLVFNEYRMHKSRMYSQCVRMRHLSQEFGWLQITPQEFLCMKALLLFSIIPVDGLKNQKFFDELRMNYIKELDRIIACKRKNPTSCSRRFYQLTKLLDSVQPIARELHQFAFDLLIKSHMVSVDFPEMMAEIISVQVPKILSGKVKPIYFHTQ
# Experimental: AR protein "degradation" in prostate cancer cells was measured by using cycloheximide (a protein synthesis inhibitor) chasing assay method. Briefly, LNCaP cells were incubated with testing ASC compound at the designated concentrations for 24 hours. Subsequently, cycloheximide was added to the cells at a concentration of 15 µg/ml to block new protein synthesis. After incubation, cells were harvested at designated time periods and the resultant change in AR protein levels were analysed using Western Blot analysis as described above.
# Androgen Receptor (AR) [2] = biological target: T2, Androgen Receptor (AR) (Homo sapiens, UniProt P10275, H875Y, form not given); assay: Western Blot analysis of AR protein expression in CWR22Rv1 cells; type: cell-based; settings: various concentrations, Western Blot (FIG. 6)
# T2 sequence (P10275 1-920 H875Y): T1 sequence (P10275 1-920 T878A) with H875Y, A878T
# Androgen Receptor (AR) [3] = biological target: T3, Androgen Receptor (AR) (Homo sapiens, UniProt P10275, T878A); assay: Western Blot analysis of AR protein expression in LNCaP cells; settings: various concentrations, Western Blot (FIG. 6)
# T3 sequence (P10275 1-920 T878A): T1 sequence (P10275 1-920 T878A)
Structure (SMILES),IC50 [1] [µM],AR protein degradation (AR protein),reducing endogenous AR expression (Androgen Receptor (AR) [2]),reducing endogenous AR expression (Androgen Receptor (AR) [3])
"COc1ccc(C=CC(=O)C=C(O)C=Cc2ccc(OC)c(OC)c2)cc1OC [ASC-J9®, 1,7-Bis-(3,4-dimethoxy-phenyl)-5-hydroxy-hepta-1,4,6-trien-3-one, reference compound]",4,enhances AR protein degradation,,
COc1ccc(/C=C/C(=O)C(C(=O)/C=C/c2ccc(OC)c(OC)c2)=C(O)/C=C/c2ccc(OC)c(OC)c2)cc1OC [ASC-JM4],,,capable of reducing endogenous AR expression,capable of reducing endogenous AR expression
COc1ccc(/C=C/C(=O)C2CC(c3ccc(OC)c(OC)c3)(C(C(=O)/C=C/c3ccc(OC)c(OC)c3)C(=O)/C=C/c3ccc(OC)c(OC)c3)CC2=O)cc1OC (centres unmarked) [ASC-JM5],,enhances AR protein degradation,,
